One experiment has as its system rabbit skeletal myofibrils (fast skeletal myofibrils). Briefly: Activation of fast skeletal myofibrils (PUMA assay, PK/LDH-coupled ATPase at pCa25). It counts as biochemical. Particulars: AC1.4 determined according to the procedure of Example 39; reported as class symbols. The method in brief:
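ATPase activity of Triton-washed rabbit skeletal myofibrils, roughly 90% fast fibres, tracked by NADH loss at 340 nm through a PK/LDH-coupled ADP-regenerating system. Calcium set to 25% of maximal activity (pCa25), in PIPES 12 mM pH 6.8 with 2 mM MgCl2 and 1 mM DTT; AC1.4 reported.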
Take `CC(C)(CNc1ccc(-c2cccc(C(N)=O)c2)nn1)c1ccc(F)cc1` [3-(6-{[2-(4-fluorophenyl)-2-methylpropyl]amino}pyridazin-3-yl)benzamide]: the “Mean AC1.4” value is on record as “A (A=<1 uM)”.

In the case of `CN(C)CCc1cccc(C(C)(C)CNc2ccc(-c3ccc4[nH]nc(N)c4c3)nn2)c1`, the “Mean AC1.4” value was “D (D=>20 uM)”.

`CC(C)(CNc1ccc(-c2cc(C(N)=O)ccn2)nn1)c1ccc(F)cc1` [2-(6-{[2-(4-fluorophenyl)-2-methylpropyl]amino}pyridazin-3-yl)pyridine-4-carboxamide]: the “Mean AC1.4” value was “A (A=<1 uM)”.

For the molecule `CC(C)(CNc1ccc(C#N)nn1)c1ccc(F)cc1` [6-{[2-(4-fluorophenyl)-2-methylpropyl]amino}pyridazine-3-carbonitrile], the “Mean AC1.4” value is on record as “D (D=>20 uM)”.

In the case of `COc1ccc(C2(CNc3ccc(-c4cc(C(N)=O)ccc4F)nn3)CCC2)nc1`, the “Mean AC1.4” value is on record as “D (D=>20 uM)”.

With `CC(C)(C)OC(=O)N1CCN(C(=O)c2ccc(NCC(C)(C)c3ccc(F)cc3)nn2)CC1` [tert-butyl 4-[(6-{[2-(4-fluorophenyl)-2-methylpropyl]amino}pyridazin-3-yl)carbonyl]piperazinecarboxylate], the “Mean AC1.4” value is listed as “D (D=>20 uM)”.

For the molecule `CC(C)(CNc1ccc(C(=O)N2CCCC2C(N)=O)nn1)c1ccc(F)cc1` (centres unmarked) [1-[(6-{[2-(4-fluorophenyl)-2-methylpropyl]amino}pyridazin-3-yl)carbonyl]pyrrolidine-2-carboxamide], the “Mean AC1.4” value is recorded as “D (D=>20 uM)”.

Consider `CC(C)(CNc1ccc(-c2ccc3[nH]c(=O)[nH]c3c2)nn1)c1ccccc1CO`, for which the “Mean AC1.4” value was “B (B=1-10 uM)”.

For `CC(C)(CNc1ccc(-c2ccc(C(=O)c3ccccc3)cc2)nn1)c1ccc(F)cc1` [4-(6-{[2-(4-fluorophenyl)-2-methylpropyl]amino}pyridazin-3-yl)phenyl phenyl ketone], the “Mean AC1.4” value is on record as “D (D=>20 uM)”.

For the molecule `CC(C)(CNc1ccc(-c2ccc3[nH]c(=O)[nH]c3c2)nn1)c1ccccc1`, the “Mean AC1.4” value is recorded as “A (A=<1 uM)”.

In the case of `CC(C)(CNc1ccc(C(=O)N2CCC2C(N)=O)nn1)c1ccc(F)cc1` (centres unmarked) [1-[(6-{[2-(4-fluorophenyl)-2-methylpropyl]amino}pyridazin-3-yl)carbonyl]azetidine-2-carboxamide], the “Mean AC1.4” value was “D (D=>20 uM)”.

Regarding `C[C@H](CNc1ccc(-c2cccc(C(N)=O)c2)nn1)c1ccc(F)cc1`, the “Mean AC1.4” value is “B (B=1-10 uM)”.

`Cc1ccc(C(C)(C)CNc2ccc(-c3ccc4[nH]nc(N)c4c3)nn2)cc1` [[6-(3-amino(1H-indazol-5-yl))pyridazin-3-yl][2-methyl-2-(4-methylphenyl)propyl]amine]: the “Mean AC1.4” value is recorded as “A (A=<1 uM)”.

`CC(C)(CNc1ccc(C(=O)N2CCOCC2)nn1)c1ccc(F)cc1` [6-{[2-(4-fluorophenyl)-2-methylpropyl]amino}pyridazin-3-yl morpholin-4-yl ketone]: the “Mean AC1.4” value is “D (D=>20 uM)”.

`c1cnc(C2(CNc3ccc(-c4ccc5cn[nH]c5c4)nn3)CCC2)cn1` [(6-(1H-indazol-6-yl)pyridazin-3-yl)[(pyrazin-2-ylcyclobutyl)methyl]amine]: the “Mean AC1.4” value is on record as “C (C=10-20 uM)”.

The same experiment, now with this note: median AC1.4 class, procedure of Example 39.
For the molecule `NC(=O)c1ccc(O)c(-c2ccc(NC[C@]3(c4ncccc4F)C[C@H](F)C3)nn2)c1` [3-[6-({[3-fluoro-1-(3-fluoro(2-pyridyl))cyclobutyl]methyl}ami-no)pyridazin-3-yl]-4-hydroxybenzamide], the “Mean AC1.4” value was “B (B=1-10 uM)”.

`O=c1cc(-c2ccc(NCC3(c4ncccc4F)CCC3)nn2)[nH][nH]1` [3-[6-({[(3-fluoro-2-pyridyl)cyclobutyl]methyl}ami-no)pyridazin-3-yl]-3-pyrazolin-5-one]: the “Mean AC1.4” value is given as “B (B=1-10 uM)”.

For `N#Cc1ccc(-c2ccc(NCC3(c4ncccc4F)CCC3)nn2)s1` [5-[6-({[(3-fluoro-2-pyridyl)cyclobutyl]methyl}ami-no)pyridazin-3-yl]thiophene-2-carbonitrile], the “Mean AC1.4” value was “B (B=1-10 uM)”.

Take `CC(C)(CNc1ccc(-c2ccc3[nH]nc(NCCO)c3c2)nn1)c1ccc(F)cc1` [2-{[5-(6-{[2-(4-fluorophenyl)-2-methylpropyl]amino}pyridazin-3-yl)-1H-indazol-3-yl]amino}ethan-1-ol]: the “Mean AC1.4” value is “A (A=<1 uM)”.

Turning to `O=C(O)c1ccc(-c2ccc(NCC3(c4ncccc4F)CCC3)nn2)s1` [5-[6-({[(3-fluoro-2-pyridyl)cyclobutyl]methyl}ami-no)pyridazin-3-yl]thiophene-2-carboxylic acid], the “Mean AC1.4” value is reported as “B (B=1-10 uM)”.

Regarding `NC(=O)c1nc(-c2ccc(NCC3(c4ncccc4F)CCC3)nn2)cs1` [4-[6-({[(3-fluoro-2-pyridyl)cyclobutyl]methyl}ami-no)pyridazin-3-yl]-1,3-thiazole-2-carboxamide], the “Mean AC1.4” value is given as “B (B=1-10 uM)”.

For the molecule `CC(=O)Nc1ncc(-c2ccc(NCC3(c4ncccc4F)CCC3)nn2)cn1`, the “Mean AC1.4” value is “C (C=10-20 uM)”.

In the case of `Fc1cccnc1C1(Nc2ccc(C3CCCCC3)nn2)CCC1` [(6-cyclohexylpyridazin-3-yl)[(3-fluoro(2-pyridyl))cyclobutyl]amine], the “Mean AC1.4” value was “C (C=10-20 uM)”.

`NC(=O)c1ccc(-c2ccc(NCC3(c4ncccc4F)CCC3)nn2)s1` [5-[6-({[(3-fluoro-2-pyridyl)cyclobutyl]methyl}ami-no)pyridazin-3-yl]thiophene-2-carboxamide]: the “Mean AC1.4” value is “A (A=<1 uM)”.

As to `Nc1n[nH]c2ccc(-c3ccc(NC4(c5ncccc5F)CCC4)nn3)cc12` [[6-(3-amino(1H-indazol-5-yl))pyridazin-3-yl][(3-fluoro(2-pyridyl))cyclobutyl]amine], the “Mean AC1.4” value is “B (B=1-10 uM)”.

On to `c1ccc(-c2ccc(NC3(c4ccccc4)CCC3)nn2)cc1` [(phenylcyclobutyl)(6-phenylpyridazin-3-yl)amine], for which the “Mean AC1.4” value is reported as “B (B=1-10 uM)”.

`O=C(NC1CCNC1)c1cnc(-c2ccc(NCC3(c4ncccc4F)CCC3)nn2)s1` (centres unmarked) [{2-[6-({[(3-fluoro(2-pyridyl))cyclobutyl]methyl}ami-no)pyridazin-3-yl](1,3-thiazol-5-yl)}-N-pyrrolidin-3-ylcarboxamide]: the “Mean AC1.4” value is on record as “A (A=<1 uM)”.

As to `CC(=O)NCc1cnc(-c2ccc(NCC3(c4ncccc4F)CCC3)nn2)s1` [N-({2-[6-({[(3-fluoro-2-pyridyl)cyclobutyl]methyl}ami-no)pyridazin-3-yl]-1,3-thiazol-5-yl}methyl)acetamide], the “Mean AC1.4” value is on record as “A (A=<1 uM)”.

On to `O=C(O)C1CN=C(c2ccc(NCC3(c4ncccc4F)CCC3)nn2)N1` (centres unmarked), for which the “Mean AC1.4” value is given as “D (D=>20 uM)”.

Take `NC(=O)c1ccc(F)c(-c2ccc(NC3(c4ncccc4O)CCC3)nn2)c1`: the “Mean AC1.4” value is on record as “D (D=>20 uM)”.

For the molecule `NC(=O)Nc1ccc(-c2ccc(NC3(c4ncccc4F)CCC3)nn2)cc1`, the “Mean AC1.4” value is recorded as “B (B=1-10 uM)”.

With `Fc1cccnc1C1(CNc2ccc(-c3cccc(-c4nn[nH]n4)c3)nn2)CCC1` [[6-(3-(2H-1,2,3,4-tetraazol-5-yl)phenyl)pyridazin-3-yl]{[(3-fluoro(2-pyridyl))cyclobutyl]methyl}amine], the “Mean AC1.4” value is “A (A=<1 uM)”.

With `COc1ccc2nc(-c3ccc(NCC4(c5ncccc5F)CCC4)nn3)sc2n1` [{[(3-fluoro(2-pyridyl))cyclobutyl]methyl}[6-(5-methoxy(1,3-thiazolino[5,4-b]pyridin-2-yl))pyridazin-3-yl]amine], the “Mean AC1.4” value was “D (D=>20 uM)”.

Staying with this experiment, now noted: median AC1.4 reported as class; procedure of Example 39.
Turning to `NC1CCc2nc(-c3ccc(NCC4(c5ncccc5F)CCC4)nn3)sc2C1` (centres unmarked) [[6-(6-amino(4,5,6,7-tetrahydrobenzothiazol-2-yl))pyridazin-3-yl]{[(3-fluoro(2-pyridyl))cyclobutyl]methyl}amine], the “Mean AC1.4” value is “D (D=>20 uM)”.

As to `CCOC(=O)Cc1csc(-c2ccc(NCC3(c4ncccc4F)CCC3)nn2)n1` [ethyl 2-{2-[6-({[(3-fluoro-2-pyridyl)cyclobutyl]methyl}ami-no)pyridazin-3-yl]-1,3-thiazol-4-yl}acetate], the “Mean AC1.4” value is “C (C=10-20 uM)”.

As to `CNC(=O)Nc1ccc(-c2ccc(NC[C@]3(c4ncccc4F)C[C@H](F)C3)nn2)c(F)c1` [N-{3-fluoro-4-[6-({[3-fluoro-1-(3-fluoro(2-pyridyl))cyclobutyl]methyl}ami-no)pyridazin-3-yl]phenyl}(methylamino)carbox-amide], the “Mean AC1.4” value is recorded as “A (A=<1 uM)”.

On to `CN(Cc1cnc(-c2ccc(NCC3(c4ncccc4F)CCC3)nn2)s1)C(=O)C(C)(C)N` [2-amino-N-({2-[6-({[(3-fluoro(2-pyridyl))cyclobutyl]methyl}ami-no)pyridazin-3-yl](1,3-thiazol-5-yl)}methyl)-2-methyl-N-methylpropanamide], for which the “Mean AC1.4” value was “A (A=<1 uM)”.

On to `CC(C)(O)CNC(=O)c1cccc(-c2ccc(NC[C@]3(c4ncccc4F)C[C@H](F)C3)nn2)c1` [{3-[6-({[3-fluoro-1-(3-fluoro(2-pyridyl))cyclobutyl]methyl}ami-no)pyridazin-3-yl]phenyl}-N-(2-hydroxy-2-methylpropyl)carboxamide], for which the “Mean AC1.4” value is listed as “B (B=1-10 uM)”.

For the molecule `OCCNCc1cnc(-c2ccc(NCC3(c4ncccc4F)CCC3)nn2)s1` [2-[({2-[6-({[(3-fluoro-2-pyridyl)cyclobutyl]methyl}ami-no)pyridazin-3-yl]-1,3-thiazol-5-yl}methyl)amino]ethan-1-ol], the “Mean AC1.4” value was “B (B=1-10 uM)”.

Consider `CS(=O)(=O)N1CCc2nc(-c3ccc(NCC4(c5ncccc5F)CCC4)nn3)sc2C1` [2-[6-({[(3-fluoro(2-pyridyl))cyclobutyl]methyl}ami-no)pyridazin-3-yl]-5-(methylsulfonyl)-4,5,6,7-tetrahydro-1,3-thiazolo[5,4-c]pyridine], for which the “Mean AC1.4” value is recorded as “D (D=>20 uM)”.

Turning to `Cc1cc(-c2cccc(C(N)=O)c2)nnc1NCC1(c2ncccc2F)CCC1` [3-[6-({[(3-fluoro(2-pyridyl))cyclobutyl]methyl}amino)-5-methylpyridazin-3-yl]benzamide], the “Mean AC1.4” value is recorded as “D (D=>20 uM)”.

The record behind these values is patent US10076519B2 (CYTOKINETICS, INC., priority 2010, dated 2018).
